# “And” between values parts separate entries of the source, which are not always exact repeats. Identical values can stand only once. “Also recorded” adds a separate entry of the source.
# Experiments:
# [1] = Body weight of tumor bearing mice in the B16-F10 syngeneic model; type: in vivo, C57BL/6 mice
# Description: (§1) • Animal species and strain: C57BL/6 mice • History of treatment: Naive • Sex, age and weight: Female, 6-8 weeks • Breeder/supplier: Shanghai SLAC Laboratory Animal Co. Ltd • Adaptation: At least 7 days • Room: SPF Room • Room temperature: 20-26° C. • Room relative humidity: 40-70% • Light cycle: Fluorescent light for 12-hour light (08:00-20:00) and 12-hour dark • Animal hosting: 2-5 mice/cage each group • Food: Free access to food • Water: Free access to water (municipal tap water filtered by reverse osmosis or high-pressure sterilizer)
# (§2) B16-F10 cells (3×10^5 in 100 μL of serum-free medium) were inoculated to each of C57BL/6 mice via s.c. under anesthesia by 3-4% isoflurane. Each group contains 15 mice.
# (§3) When average tumor volume reached 35-60 mm^3, 15 mice were randomized into group 6. The day of inoculation was denoted as day 0.
# Body weight was measured on Day 4, 5, 6, 8, 11, 13, 15 and 18 after inoculation. When required, body weight was measured daily.
# (§4) Results were expressed as mean±S.E.M. Comparisons between two groups were made by Dunnett's multi-comparison test, p<0.05 were considered as significant.
# B16-F10 syngeneic model = experiment: Subcutaneous B16-F10 syngeneic model, tumor growth; type: in vivo, C57BL/6 mice
# Description: In order to evaluate the in vivo efficacy of SIS3 and novel compounds of the present invention, a study has been conducted in treatment of the subcutaneous B16-F10 syngeneic models.
# as §1
# B16-F10 cell was maintained at 37° C. under 5% CO2 in DMEM medium supplemented with 10% FBS and were subsequently cultured within 10 passages before inoculated into the mice.
# as §2, §3
# Tumor dimensions were measured on Day 4, 5, 6, 8, 11, 13, 15 and 18, after inoculation in 2 dimensions with calipers.
# When required, tumor volume was measured daily. The tumor volume (V) was calculated as follows: V=(length×width^2)/2.
# The individual relative tumor volume (RTV) was calculated as follows: RTV=Vt/V0, where Vt was the volume on each day, and V0 was the volume at the beginning of the treatment.
# Tumor growth inhibition (TGI), TGI=(1−(Ti−T0)/(Ci−C0))×100%; Ti and Ci as the mean tumor volumes of the treatment and control groups on the measurement day; T0 and C0 as the mean tumor volumes of the treatment and control groups on day 0
# as §4
# [2] = test system: TGFβ/Smad Signaling Pathway SBE Reporter—HEK293 Cell Line; experiment: TGFβ/Smad SBE reporter luciferase assay in HEK293 cells stimulated with human TGFβ1; type: cell-based; conditions: 4 h compound, then TGFβ1 20 ng/ml ~18 h
# Description: • 1. TGFβ/Smad Signaling Pathway SBE Reporter—HEK293 Cell Line BPS Bioscience Catalog #: 60653 • 2. Human TGFβ1 (BPS Bioscience #90900-1) • 3. SIS3 (Sigma #S0447): inhibitor of TGFβ pathway. Prepare stock soln. in DMSO • 4. Growth medium: MEM medium (Invitrogen #11095-080)+10% FBS (ATCC #30-2020)+1% non-essential amino acids (Lonza #13-114E)+1 mM Na pyruvate (Lonza #13-115E)+1% Penicillin/Streptomycin (ATCC #30-2300)+400 μg/ml of Geneticin (Invitrogen #11811-031) • 5. Assay medium: MEM medium+0.5% FBS+1% non-essential amino acids+1 mM Na pyruvate+1% Pen/Strep • 6. 96-well tissue culture-treated white clear-bottom assay plate (Corning #3610) • 7. ONE-Step™ Luciferase Assay System (BPS, Cat. #60690)
# SBE reporter-HEK293 cells were harvested from culture in growth medium and seeded at a density of ˜10,000 cells per well into a white clear-bottom 96-well microplate in 100 μl of assay medium. The plate containing cells was incubated at 37° C. in a CO2 incubator. 24 h after seeding, cells were washed with 100 μL of assay buffer and treated with three-fold serial dilution of compounds in 50 μl assay medium. […]
# After 18 h of incubation, Luciferase assay was performed using ONE-Step™ Luciferase Assay System according to the protocol provided: 50 μl of ONE-Step™ Luciferase reagent was added per well and shook at room temperature for […]. Luminescence was measured using a luminometer.
# [3] = 10 mg/kg q.d. * 3W i.p., Day 11
# [4] = 10 mg/kg q.d. * 3W i.p., Day 13
# [5] = 10 mg/kg q.d. * 3W i.p., Day 15
# [6] = 10 mg/kg q.d. * 3W i.p., Day 18
# [7] = 30 mg/kg q.d. * 3W i.p., Day 11
# [8] = 30 mg/kg q.d. * 3W i.p., Day 13
# [9] = 30 mg/kg q.d. * 3W i.p., Day 15
# [10] = 30 mg/kg q.d. * 3W i.p., Day 18
# [11] = single agent, i.p. QD*3 weeks, SIS3 10 and 30 mg/kg, MO-00005 10, 30 and 100 mg/kg, vs vehicle
structure (smiles),measurement,setting,value
"COc1cc2c(cc1OC)CN(C(=O)/C=C/c1c(-c3ccccc3)n(C)c3ncccc13)CC2.Cl [SIS3, reference compound]",Body weight (g) Mean,"[1]; 10 mg/kg q.d. * 3W i.p., Day 1",16.72 g
same,Body weight (g) Mean,"[1]; 10 mg/kg q.d. * 3W i.p., Day 4",16.64 g
same,Body weight (g) Mean,"[1]; 10 mg/kg q.d. * 3W i.p., Day 5",16.55 g
same,Body weight (g) Mean,"[1]; 10 mg/kg q.d. * 3W i.p., Day 6",16.50 g
same,Body weight (g) Mean,"[1]; 10 mg/kg q.d. * 3W i.p., Day 8",16.83 g
same,Body weight (g) Mean,[1]; [3],17.53 g
same,Body weight (g) Mean,[1]; [4],17.84 g
same,Body weight (g) Mean,[1]; [5],19.04 g
same,Body weight (g) Mean,[1]; [6],20.77 g
same,Body weight (g) Mean,"[1]; 30 mg/kg q.d. * 3W i.p., Day 1",16.72 g
same,Body weight (g) Mean,"[1]; 30 mg/kg q.d. * 3W i.p., Day 4",16.66 g
same,Body weight (g) Mean,"[1]; 30 mg/kg q.d. * 3W i.p., Day 5",16.55 g
same,Body weight (g) Mean,"[1]; 30 mg/kg q.d. * 3W i.p., Day 6",16.59 g
same,Body weight (g) Mean,"[1]; 30 mg/kg q.d. * 3W i.p., Day 8",16.69 g
same,Body weight (g) Mean,[1]; [7],17.30 g
same,Body weight (g) Mean,[1]; [8],17.53 g
same,Body weight (g) Mean,[1]; [9],18.45 g
same,Body weight (g) Mean,[1]; [10],20.70 g
same,Tumor Sizes (mm3) Mean,"B16-F10 syngeneic model; 10 mg/kg q.d. * 3W i.p., Day 4 (estimated value)",0.87 mm3
same,Relative tumor volume Mean,"B16-F10 syngeneic model; 10 mg/kg q.d. * 3W i.p., Day 4, RTV=Vt/V0",0.04
same,Tumor Sizes (mm3) Mean,"B16-F10 syngeneic model; 10 mg/kg q.d. * 3W i.p., Day 5 (estimated value)",1.10 mm3 and 1.1 mm3
same,Relative tumor volume Mean,"B16-F10 syngeneic model; 10 mg/kg q.d. * 3W i.p., Day 5, RTV=Vt/V0",0.05
same,Tumor Sizes (mm3) Mean,"B16-F10 syngeneic model; 10 mg/kg q.d. * 3W i.p., Day 6 (estimated value)",3.36 mm3
same,Relative tumor volume Mean,"B16-F10 syngeneic model; 10 mg/kg q.d. * 3W i.p., Day 6, RTV=Vt/V0",0.12
same,Tumor Sizes (mm3) Mean,"B16-F10 syngeneic model; 10 mg/kg q.d. * 3W i.p., Day 8",43.65 mm3
same,Relative tumor volume Mean,"B16-F10 syngeneic model; 10 mg/kg q.d. * 3W i.p., Day 8, RTV=Vt/V0",1.00
same,Tumor Sizes (mm3) Mean,B16-F10 syngeneic model; [3],156.77 mm3
same,Relative tumor volume Mean,"B16-F10 syngeneic model; 10 mg/kg q.d. * 3W i.p., Day 11, RTV=Vt/V0",4.07
same,Tumor growth inhibition (%) TGI,"B16-F10 syngeneic model; 10 mg/kg q.d. * 3W i.p., Day 11, calculated based on tumor volume of Day 8",29%
same,Tumor Sizes (mm3) Mean,B16-F10 syngeneic model; [4],443.17 mm3
same,Relative tumor volume Mean,"B16-F10 syngeneic model; 10 mg/kg q.d. * 3W i.p., Day 13, RTV=Vt/V0",12.20
same,Tumor growth inhibition (%) TGI,"B16-F10 syngeneic model; 10 mg/kg q.d. * 3W i.p., Day 13, calculated based on tumor volume of Day 8",26%
same,Tumor Sizes (mm3) Mean,B16-F10 syngeneic model; [5],793.01 mm3
same,Relative tumor volume Mean,"B16-F10 syngeneic model; 10 mg/kg q.d. * 3W i.p., Day 15, RTV=Vt/V0",22.19
same,Tumor growth inhibition (%) TGI,"B16-F10 syngeneic model; 10 mg/kg q.d. * 3W i.p., Day 15, calculated based on tumor volume of Day 8",25%
same,Tumor Sizes (mm3) Mean,B16-F10 syngeneic model; [6],2209.13 mm3
same,Relative tumor volume Mean,"B16-F10 syngeneic model; 10 mg/kg q.d. * 3W i.p., Day 18, RTV=Vt/V0",62.21
same,Tumor growth inhibition (%) TGI,"B16-F10 syngeneic model; 10 mg/kg q.d. * 3W i.p., Day 18, calculated based on tumor volume of Day 8",21%
same,Tumor Sizes (mm3) Mean,"B16-F10 syngeneic model; 30 mg/kg q.d. * 3W i.p., Day 4 (estimated value)",0.28 mm3
same,Relative tumor volume Mean,"B16-F10 syngeneic model; 30 mg/kg q.d. * 3W i.p., Day 4, RTV=Vt/V0",0.01
same,Tumor Sizes (mm3) Mean,"B16-F10 syngeneic model; 30 mg/kg q.d. * 3W i.p., Day 5 (estimated value)",0.46 mm3
same,Relative tumor volume Mean,"B16-F10 syngeneic model; 30 mg/kg q.d. * 3W i.p., Day 5, RTV=Vt/V0",0.01
same,Tumor Sizes (mm3) Mean,"B16-F10 syngeneic model; 30 mg/kg q.d. * 3W i.p., Day 6 (estimated value)",3.44 mm3
same,Relative tumor volume Mean,"B16-F10 syngeneic model; 30 mg/kg q.d. * 3W i.p., Day 6, RTV=Vt/V0",0.12
same,Tumor Sizes (mm3) Mean,"B16-F10 syngeneic model; 30 mg/kg q.d. * 3W i.p., Day 8",49.16 mm3
same,Relative tumor volume Mean,"B16-F10 syngeneic model; 30 mg/kg q.d. * 3W i.p., Day 8, RTV=Vt/V0",1.00
same,Tumor Sizes (mm3) Mean,B16-F10 syngeneic model; [7],163.60 mm3 and 163.6 mm3
same,Relative tumor volume Mean,"B16-F10 syngeneic model; 30 mg/kg q.d. * 3W i.p., Day 11, RTV=Vt/V0",3.98
same,Tumor growth inhibition (%) TGI,"B16-F10 syngeneic model; 30 mg/kg q.d. * 3W i.p., Day 11, calculated based on tumor volume of Day 8",28%
same,Tumor Sizes (mm3) Mean,B16-F10 syngeneic model; [8],379.84 mm3
same,Relative tumor volume Mean,"B16-F10 syngeneic model; 30 mg/kg q.d. * 3W i.p., Day 13, RTV=Vt/V0",9.22
same,Tumor Sizes (mm3) Mean,B16-F10 syngeneic model; [9],786.37 mm3
same,Relative tumor volume Mean,"B16-F10 syngeneic model; 30 mg/kg q.d. * 3W i.p., Day 15, RTV=Vt/V0",23.71
same,Tumor Sizes (mm3) Mean,B16-F10 syngeneic model; [10],2131.42 mm3
same,Relative tumor volume Mean,"B16-F10 syngeneic model; 30 mg/kg q.d. * 3W i.p., Day 18, RTV=Vt/V0",70.14
same,anti-tumor activity against the B16-F10 syngeneic model (in words),B16-F10 syngeneic model; [11],anti-tumor response; also recorded: significant anti-tumor activity
same,efficacy on tumor weight (in words),B16-F10 syngeneic model; [11],significant efficacy on tumor weight
same,IC50,[2],2960 nM
